Experiment in all cases: microbe, parasite or virus in culture
Test [1] concerns Pseudotyped HCV GT1b particles (HCVpp, Con1 strain E1/E2). It counts as cell-based, Hepatitis C virus GT1b Con1 strain. The following applies: Hepatitis C virus, 72 h, read-out: HCVpp GT-1b (EC50, μM).
In test [2] the test system is Pseudotyped HCV GT1a particles (HCVpp, H77 strain E1/E2). In kind it is cell-based, Hepatitis C virus GT1a H77 strain. The following applies: Hepatitis C virus, 72 h, read-out: HCVpp GT-1a (EC50, μM).
Test [3] deals with pseudotyped VSV G particles (VSVpp). It counts as cell-based. The following applies: Vesicular stomatitis virus, 72 h, read-out: VSVpp (EC50, μM).

The structures appear in SMILES notation.

Regarding `Nc1nc(Nc2ccnc(Cl)c2)n[nH]1` [Compound 1, N^3-(2-Chloro-pyridin-4-yl)-1H-[1,2,4]triazole-3,5-diamine], the results for the EC50 in test [1], in test [2] and in test [3] were 48.9 µM, 2.76 µM and not below 100 µM, respectively.

`Nc1nc(Nc2ccc(C(F)(F)F)nc2)n[nH]1` [Compound 2, N^3-(6-Trifluoromethyl-pyridin-3-yl)-1H-[1,2,4] triazole-3,5-diamine]: the values for the EC50 in test [1], in test [2] and in test [3] were not below 100 µM, 75.4 µM and not below 100 µM, respectively.

Turning to `Nc1nc(Nc2cc(Cl)nc(Cl)c2)n[nH]1` [Compound 3, N^3-(2,6-Dichloro-pyridin-4-yl)-1H-[1,2,4]triazole-3,5-diamine], the values for the EC50 in test [1], in test [2] and in test [3] were 7.08 µM, 0.191 µM and not below 100 µM, respectively.

As for `Nc1nc(Nc2cccc(C(F)(F)F)n2)n[nH]1` [Compound 4, N^3-(6-Trifluoromethyl-pyridin-2-yl)-1H-[1,2,4] triazole-3,5-diamine], the half-maximal effective concentration (EC50) in test [1], in test [2] and in test [3] was not below 100 µM throughout.

Consider `CC(C)(C)c1csc(Nc2n[nH]c(N)n2)n1` [Compound 5, N^3-(4-tert-Butyl-thiazol-2-yl)-1H-[1,2,4]triazole-3,5-diamine], for which the concentration giving a half-maximal response (EC50) in test [2] and in test [3] was not below 100 µM throughout.

For `Nc1nc(Nc2cc(C(F)(F)F)ccn2)n[nH]1` [Compound 6, N^3-(4-Trifluoromethyl-pyridin-2-yl)-1H-[1,2,4] triazole-3,5-diamine], the EC50 in test [2] is 62.2 µM; in test [3] it was not below 100 µM.

Take `Nc1nc(Nc2csc(Cl)c2)n[nH]1` [Compound 7, N^3-(5-Chloro-thiophen-3-yl)-1H-[1,2,4]triazole-3,5-diamine]: the values for the half-maximal effective concentration (EC50) in test [2] and in test [3] were 16.4 µM and not below 100 µM, respectively.

Consider `Cn1nc(Cl)cc(Nc2n[nH]c(N)n2)c1=O` [Compound 8, 4-(5-Amino-1H-[1,2,4]triazol-3-ylamino)-6-chloro-2-methyl-2H-pyridazin-3-one], for which the EC50 in test [1] and in test [3] was not below 100 µM each time.

In the case of `Nc1nc(Nc2ccc3c(=O)[nH]ncc3c2)n[nH]1` [Compound 9, 6-(5-Amino-1H-[1,2,4]triazol-3-ylamino)-2H-phthalazin-l-one], the EC50 in test [1] is 4.71 µM; in test [3] it was not below 100 µM.

In the case of `Cn1ncc2cc(Nc3n[nH]c(N)n3)ccc2c1=O` [Compound 10, 6-(5-Amino-1H-[1,2,4]triazol-3-ylamino)-2-methyl-2H-phthalazin-1-one], the results for the EC50 in test [1] and in test [3] were 3.68 µM and not below 100 µM, respectively.

Consider `Nc1nc(Nc2ccc3nccn3c2)n[nH]1` [Compound 11, N^3-Imidazo[1,2-a]pyridin-6-yl-1H-[1,2,4]triazole-3,5-diamine], for which the EC50 in test [2] was 22.3 µM; in test [3] it was not below 100 µM.

Consider `Nc1nc(Nc2ccn3ccnc3c2)n[nH]1` [Compound 12, N^3-Imidazo[1,2-a]pyridin-7-yl-1H-[1,2,4]triazole-3,5-diamine], for which the EC50 in test [1] and in test [3] was more than 100 µM in each case.

The term EC50 denotes the midpoint of the concentration-response curve.
